# Measurements as given in article PMC5045383 (Oncotarget, 2016).
# What was measured:
# FLT3-ITD-D835Y = assay: Auto-phosphorylation of FLT3 in transformed BaF3 isogenic cells; format: cell-based
# Description: (§1) The following antibodies were purchased from Cell Signaling Technology (Danvers, MA): FLT3 (8F2) Rabbit mAb (#3462), Phospho-FLT3 (Tyr589/591) (30D4) Rabbit mAb (#3464), NF-κB p65 (D14E12) XP® Rabbit mAb (#8242), Phospho-NF-κB p65 (Ser536) (93H1) Rabbit mAb (#3033), Stat5 Antibody (#9363), Phospho-Stat5 (Tyr694) (C71E5) Rabbit mAb (#9314), c-Myc (D84C12) XP® Rabbit mAb (#5605), Akt (pan) (C67E7) Rabbit mAb (#4691), Phospho-Akt (Thr308) (244F9) Rabbit mAb (#4056), Phospho-Akt (Ser473) (D9E) XP® Rabbit mAb (#4060), p44/42 MAPK (Erk1/2) (137F5) Rabbit mAb (#4695), Phospho-p44/42 MAPK (Erk1/2) (Thr202/Tyr204) (D13.14.4E) XP® Rabbit mAb (#4370), GAPDH (D16H11) XP® Rabbit mAb, PARP (46D11) rabbit mAb (#9532), Caspase-3 (8G10) rabbit mAb (#9665), GSK-3β (27C10) Rabbit mAb (#9315), Phospho-GSK-3β (Ser9) (5B3) Rabbit mAb (#9323), FoxO1 (C29H4) Rabbit mAb (#2880), Phospho-FoxO1 (Thr24)/FoxO3a (Thr32)/FoxO4 (Thr28) (4G6) Rabbit mAb (#2599), PRAS40 (D23C7) XP® Rabbit mAb (#2691), Phospho-PRAS40 (Thr246) (C77D7) Rabbit mAb (#2997), 4E-BP1 (#9644), 4E-BP1 (53H11) Rabbit mAb (#9644), p70 S6 Kinase (49D7) Rabbit mAb (#2708), Phospho-p70 S6 Kinase (Thr389) (108D2) Rabbit mAb (#9234). Antibodies were used at 1:1000. Protein lysate preparation and immunoblotting were carried out as previously described.
# (§2) Retroviral constructs for BaF3-FLT3 mutants were made based on the pMSCVpuro (Clontech) backbone. For TEL-FLT3 vector, the first 1 kb of human TEL gene with an artificial myristoylation sequence ([…]) was cloned into pMSCVpuro retroviral vector, followed by a 3xFLAG tag sequence and a stop codon. Then the kinase domain coding sequence of FLT3 was inserted in-frame between TEL and 3× FLAG sequences. For full-length expression vectors, the coding sequences of FLT3 variants were directly cloned in pMSCVpuro vector with a 3X FLAG tag at the C-terminal end. All mutagenesis studies were performed using the QuikChange Site-Directed Mutagenesis Kit (Stratagene) following the manufacturer's instructions. […]
# FLT3-ITD-F691L = assay: as above; format: cell-based
# Description: as §1, §2
# FLT3-ITD [1] = assay: as above; format: cell-based
# Description: as §1, §2
# MOLM14 = assay: Cell cycle analysis (PI, flow cytometry); format: cell-based, human; conditions: 24 hours
# Experimental: (§3) The cells were fixed in 70% cold ethanol and incubated at −20°C overnight, then stained with PI/RNase staining buffer (BD Pharmingen). Flow cytometry was performed using a FACS Calibur (BD), and results were analyzed by ModFit software.
# MV4-11 = assay: Cell cycle analysis (PI, flow cytometry); format: cell-based, human; conditions: 24 hours
# Experimental: as §3
# MOLM14 cells = assay: Apoptosis effect examination (PARP, Caspase-3 immunoblot); format: cell-based, human; conditions: MOLM14, 24 hours; more pronounced at 3 μM
# Description: (§4) Cells were then washed in PBS and lysed in cell lysis buffer. PARP, Caspase-3, GAPDH antibodies (Cell signaling Technology) were used for immunoblotting.
# MV4-11 cells = assay: as above; format: cell-based, human; conditions: MV4-11, 24 hours; more significantly at 1 μM
# Description: as §4
# FLT3-ITD [2] = assay: Kinase kinetic assay (ADP-Glo, varied ATP); format: biochemical; conditions: range of ATP concentrations
# Experimental: Kinetic analyses of FLT3-ITD were performed using a luminometric kinase assay varying the concentration of ATP using the ADP-Glo reagents (Promega). […] After 60 min incubation at RT, various concentrations of ATP, 0.2 μg/μL FLT3 substrate Poly (4:1 Glu, Tyr) peptide added and incubated for 60 min at 37°C. The overall rate of reaction is determined as the slope of the decreasing phase of the reaction. Each data point was collected in duplicate and kinetic parameters were obtained using Prism 5.0 (GraphPad Software, San Diego, CA).
# [3] = tested on: FLT3-ITD-positive AML patient primary cells; assay: Anti-proliferation, AML patient primary cells; format: cell-based, human; conditions: at 1 μM; compared to normal bone marrow cells
# Experimental: Mononuclear cells were isolated from samples from AML patients identified as harboring mutant FLT3. Cells were tested in liquid culture (DMEM, supplemented with 20% FBS) in the presence of different concentrations of inhibitors. All blood and bone marrow samples from AML patients were obtained under approval of the Dana Farber Cancer Institute Institutional Review Board. The ethics committees approved the consent procedure. All studies were performed with ACUC approved protocols at DFCI.
# FLT3 wt = molecular target: FLT3 wt; parameters: method as in PMID 22037378; conditions: cited from earlier work
smiles,measurement,setting,value
Cc1[nH]nc2ccc(-c3cncc(OC[C@@H](N)Cc4ccccc4)c3)cc12 [A674563],EC50,FLT3-ITD-D835Y,1260 nM
same,EC50,FLT3-ITD-F691L,400 nM
same,EC50,FLT3-ITD [1],85 nM
same,%G0–G1,"MOLM14; MOLM14, 0.3 μM",47.08%
same,%G2–M,"MOLM14; MOLM14, 0.3 μM",11.27%
same,%S,"MOLM14; MOLM14, 0.3 μM",41.65%
same,%G0–G1,"MOLM14; MOLM14, 3 μM",53.87%
same,%G2–M,"MOLM14; MOLM14, 3 μM",22.65%
same,%S,"MOLM14; MOLM14, 3 μM",23.49%
same,%G0–G1,"MV4-11; MV4-11, 0.3 μM",68.69%
same,%G2–M,"MV4-11; MV4-11, 0.3 μM",2.61%
same,%S,"MV4-11; MV4-11, 0.3 μM",28.7%
same,%G0–G1,"MV4-11; MV4-11, 3 μM",68.62%
same,%G2–M,"MV4-11; MV4-11, 3 μM",8.56%
same,%S,"MV4-11; MV4-11, 3 μM",22.82%
same,concentration at which induction of apoptosis was evident,MOLM14 cells,1 µM
same,concentration at which apoptosis was induced,MV4-11 cells,0.3 µM
same,mode of inhibition (kinetics analysis),FLT3-ITD [2],ATP competitive inhibitor
same,anti-proliferation activity in patient primary cells,[3],potent anti-proliferation activity
same,Kd,FLT3 wt,540 nM
